Measured values: article PMC2266582 (The Journal of General Physiology, 2005)
Where two headings read alike, the source gives them in different places.

Experiments:
KcsA tetramer [1] = biological target: T1, KcsA tetramer (Streptomyces lividans, UniProt P0A334); assay: Temperature dependence of KcsA tetramer monitored by SDS-PAGE; details: for effect on temperature dependence of KcsA tetramer: 5 mM MgCl2 or 5 mM CaCl2 added to 100 mM choline Cl; for thermal stability of KcsA tetramer: 100 mM KCl or 100 mM NaCl, heated 10 min at 60–99°C
T1 sequence (P0A334 1-160): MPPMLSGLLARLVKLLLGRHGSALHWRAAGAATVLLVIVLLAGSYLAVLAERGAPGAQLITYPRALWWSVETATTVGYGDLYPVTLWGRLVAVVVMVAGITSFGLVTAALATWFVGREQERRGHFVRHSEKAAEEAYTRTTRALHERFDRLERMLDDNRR

[2] = cited from earlier work; for Pauling crystal radii: ref Bezanilla and Armstrong, 1972, Armstrong, 2003
KcsA tetramer [3] = biological target: T1, KcsA tetramer; assay: Tetramer protection titration of stabilizing cations against high temperature; format: binding; details: 100 mM choline Cl
KcsA tetramer [4] = biological target: T1, KcsA tetramer; assay: Time course of decay of KcsA tetramer at 90°C; format: binding
KcsA tetramer [5] = biological target: T1, KcsA tetramer; format: binding
[6] = values determined by Pauling, ref Hille (2001)
[7] = K0.5 (cation concentration at half-maximal stabilization), fit to Eq. 1, heated 10 min at 90°C, 10 mM Hepes-Tris pH 7.4

[Ca+2].[Cl-].[Cl-] [Ca^2+, CaCl2]
effect on temperature dependence of KcsA tetramer (KcsA tetramer [1]): small protective effect at temperatures >60 °C

[Sr+2] [Sr^2+, SrCl2]
Radius [2, 6]: 1.13 Å
EC50 (KcsA tetramer [3]; K0.5 of tetramer protection titration, heated 10 min at 85°C): 11 µM

C[N+](C)(C)CCO.[Cl-] [choline^+, choline Cl]
time constant of single exponential decay of tetramer (KcsA tetramer [4]; 100 mM choline Cl, absence of K^+, 90°C): 16.5 s

[Li+] [Li^+, LiCl]
IC50 (KcsA tetramer [5]): 57000 µM

[Rb+] [Rb^+, RbCl]
Radius [2, 6]: 1.48 Å
EC50 (KcsA tetramer [3]; [7]): 1700 ± 3300 µM

[Na+] [Na^+, NaCl]
thermal stability of KcsA tetramer (KcsA tetramer [1]): progressively lost at temperatures >65 °C
Pauling crystal radii [2]: 0.95 Å

[Tl+] [Tl^+, Tl acetate]
Radius [2, 6]: 1.40 Å
EC50 (KcsA tetramer [3]; [7]): 1100 µM

N [NH4 ^+, NH4Cl]
Radius ([2]; estimated by a molecular graphics approach, ref Sun et al. (1997)): 1.8 Å

[Ba+2] [Ba^2+, BaCl2]
Radius [2, 6]: 1.35 Å
EC50 (KcsA tetramer [3]; K0.5 of tetramer protection titration, heated 10 min at 90°C): 0.21 µM

[K+] [K^+, KCl]
time course of tetramer denaturation (KcsA tetramer [4]; 0.1 mM K^+ added to 100 mM choline Cl, 90°C): complex slower biphasic decay
loss of tetramer (KcsA tetramer [4]; 100 mM KCl, 30 min of incubation at 90°C): virtually no loss of tetramer
thermal stability of KcsA tetramer (KcsA tetramer [1]): fully stable
Pauling crystal radii [2]: 1.33 Å
Radius [2, 6]: 1.33 Å
EC50 (KcsA tetramer [3]; [7]): 1500 ± 2500 µM

[Cl-].[Cl-].[Mg+2] [Mg^2+, MgCl2]
effect on temperature dependence of KcsA tetramer (KcsA tetramer [1]): destabilize KcsA at lower temperatures

[Cs+] [Cs^+, CsCl]
Radius [2, 6]: 1.69 Å
EC50 (KcsA tetramer [3]; [7]): 4100 ± 3500 µM
